Assay results taken from PMC11968843, “Sulphostin-inspired N-phosphonopiperidones as selective covalent DPP8 and DPP9 inhibitors” (Nature Communications, 2025).
Read-outs that look alike come from different tables or passages of the source.

How the values were obtained:
Type in all cases: biochemical
DPP9 [1] = target: T1, DPP9 (Homo sapiens, UniProt Q86TI2); assay: Time-dependent DPP9 inhibition kinetics (kobs, KI, kinact, kapp); parameters: purchased Proteros Biostructures GmbH, Germany; conditions: DPP9, n=3
T1 sequence (Q86TI2 whole entry): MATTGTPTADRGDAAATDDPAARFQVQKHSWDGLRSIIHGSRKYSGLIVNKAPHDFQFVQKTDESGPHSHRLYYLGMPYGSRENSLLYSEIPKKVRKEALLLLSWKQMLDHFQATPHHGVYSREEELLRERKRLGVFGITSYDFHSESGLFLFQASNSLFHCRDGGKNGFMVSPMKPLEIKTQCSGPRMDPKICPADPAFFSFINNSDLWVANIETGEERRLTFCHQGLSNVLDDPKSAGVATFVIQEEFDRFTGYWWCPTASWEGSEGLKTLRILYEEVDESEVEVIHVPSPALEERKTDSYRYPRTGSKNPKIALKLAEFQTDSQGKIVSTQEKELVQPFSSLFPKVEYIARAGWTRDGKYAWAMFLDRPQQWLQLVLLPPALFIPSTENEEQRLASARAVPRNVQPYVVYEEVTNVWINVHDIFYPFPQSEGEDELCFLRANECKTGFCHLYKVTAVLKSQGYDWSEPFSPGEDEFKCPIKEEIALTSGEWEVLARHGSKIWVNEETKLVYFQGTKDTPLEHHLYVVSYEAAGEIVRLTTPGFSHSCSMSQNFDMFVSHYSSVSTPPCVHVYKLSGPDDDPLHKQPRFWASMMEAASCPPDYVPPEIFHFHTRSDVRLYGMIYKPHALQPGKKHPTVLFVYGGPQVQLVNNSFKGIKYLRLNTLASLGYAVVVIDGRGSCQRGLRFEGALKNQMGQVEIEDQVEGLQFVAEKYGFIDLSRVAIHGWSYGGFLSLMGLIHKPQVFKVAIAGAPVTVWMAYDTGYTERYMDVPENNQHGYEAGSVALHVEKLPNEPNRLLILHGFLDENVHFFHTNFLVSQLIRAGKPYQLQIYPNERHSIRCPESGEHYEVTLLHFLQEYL
Procedure: (§1) To calculate the reaction rate of covalent bond formation between DPP proteins and inhibitor, kinact, KI and kapp was determined as previously described[30],[51]. Therefore, 250 µM GP-AMC was added simultaneously with a serial dilution of the inhibitor to 10 nM enzyme. Enzyme activity was measured for a maximum of 120 min at 30 °C, and fluorescence intensities were then plotted against time. Data was fitted to the following equation: Y=(vi/kobs)*(1−exp(−kobs*X)) using Graph-Pad Prism v10.2.3. The obtained pseudo-first-order rate constant was used to determine the maximum enzyme inhibition rate (kinact) and binding affinity (KI) by fitting the plot of kobs against inhibitor concentration to the following equation: Y=kinact/1+(KI/[I]) . The efficiency of covalent bond formation (kapp) was calculated by the ratio of kinact/KI. All measurements were performed in triplicates and error bars represent standard errors of the fit.

DPP4 [2] = target: T2, DPP4 (Homo sapiens, UniProt P27487); conditions: DPP4, n=3
T2 construct: purchased Proteros Biostructures GmbH, Germany
T2 sequence (P27487 whole entry): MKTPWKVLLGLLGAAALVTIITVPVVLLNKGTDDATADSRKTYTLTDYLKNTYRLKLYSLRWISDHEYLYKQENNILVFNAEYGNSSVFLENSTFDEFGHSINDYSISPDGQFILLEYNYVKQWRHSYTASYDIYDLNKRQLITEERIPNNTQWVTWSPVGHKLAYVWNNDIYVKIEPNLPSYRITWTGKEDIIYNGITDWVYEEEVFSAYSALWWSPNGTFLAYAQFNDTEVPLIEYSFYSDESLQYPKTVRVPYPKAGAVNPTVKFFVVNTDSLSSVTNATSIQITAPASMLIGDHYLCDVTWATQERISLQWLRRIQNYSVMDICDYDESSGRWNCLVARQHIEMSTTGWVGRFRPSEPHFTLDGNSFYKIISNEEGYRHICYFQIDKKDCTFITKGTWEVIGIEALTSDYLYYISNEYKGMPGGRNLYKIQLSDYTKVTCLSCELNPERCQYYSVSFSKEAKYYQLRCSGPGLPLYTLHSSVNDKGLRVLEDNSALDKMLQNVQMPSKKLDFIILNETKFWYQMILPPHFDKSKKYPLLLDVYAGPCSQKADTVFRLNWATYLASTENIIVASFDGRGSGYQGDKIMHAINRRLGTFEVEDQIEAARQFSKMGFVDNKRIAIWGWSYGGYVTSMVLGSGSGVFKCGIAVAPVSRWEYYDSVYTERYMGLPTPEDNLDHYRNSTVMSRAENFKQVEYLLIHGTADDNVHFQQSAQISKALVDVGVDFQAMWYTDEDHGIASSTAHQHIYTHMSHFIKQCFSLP
Procedure: as §1, with “Therefore, 250 µM GP-AMC was added simultaneously with a serial dilution of the inhibitor to 10 nM enzyme.” left out

DPP4 [3] = target: T2, DPP4; assay: biochemical
Procedure: (§2) Enzyme activity of DPP4, DPP8, DPP9 (Proteros Biostructures GmbH, Germany) and PREP (Sigma Aldrich, USA) was determined by measuring the initial velocity of AMC release from the fluorogenic substrate GP-AMC (Sigma Aldrich, USA) using a Tecan Spark® 10 M multimode microplate reader (Tecan Group Ltd., Switzerland) in activity buffer (20 mM HEPES/KOH pH 7.3, 110 mM potassium acetate, 2 mM Mg acetate, 0.5 mM EGTA, 0.02% Tween 20, supplemented with 1 mM DTT) and a final volume of 20 μL for maximal 60 min at 30 °C. Prior to activity measurement, 10 nM enzyme was incubated for 45 min at 30 °C and gentle shaking with the inhibitor compounds in concentrations ranging from 0 to 100 μM. The compounds were dissolved in DMSO and diluted in activity buffer (final DMSO concentration: 1%). […] IC50 values were calculated using Graph-Pad Prism v10.2.3 using the equation: [Inhibitor] vs. response—Variable slope (four parameters). All measurements were performed in triplicates and error bars represent standard errors of the fit.

DPP8 [4] = target: T3, DPP8 (Homo sapiens, UniProt Q6V1X1); assay: biochemical
T3 construct: purchased Proteros Biostructures GmbH, Germany
T3 sequence (Q6V1X1 whole entry): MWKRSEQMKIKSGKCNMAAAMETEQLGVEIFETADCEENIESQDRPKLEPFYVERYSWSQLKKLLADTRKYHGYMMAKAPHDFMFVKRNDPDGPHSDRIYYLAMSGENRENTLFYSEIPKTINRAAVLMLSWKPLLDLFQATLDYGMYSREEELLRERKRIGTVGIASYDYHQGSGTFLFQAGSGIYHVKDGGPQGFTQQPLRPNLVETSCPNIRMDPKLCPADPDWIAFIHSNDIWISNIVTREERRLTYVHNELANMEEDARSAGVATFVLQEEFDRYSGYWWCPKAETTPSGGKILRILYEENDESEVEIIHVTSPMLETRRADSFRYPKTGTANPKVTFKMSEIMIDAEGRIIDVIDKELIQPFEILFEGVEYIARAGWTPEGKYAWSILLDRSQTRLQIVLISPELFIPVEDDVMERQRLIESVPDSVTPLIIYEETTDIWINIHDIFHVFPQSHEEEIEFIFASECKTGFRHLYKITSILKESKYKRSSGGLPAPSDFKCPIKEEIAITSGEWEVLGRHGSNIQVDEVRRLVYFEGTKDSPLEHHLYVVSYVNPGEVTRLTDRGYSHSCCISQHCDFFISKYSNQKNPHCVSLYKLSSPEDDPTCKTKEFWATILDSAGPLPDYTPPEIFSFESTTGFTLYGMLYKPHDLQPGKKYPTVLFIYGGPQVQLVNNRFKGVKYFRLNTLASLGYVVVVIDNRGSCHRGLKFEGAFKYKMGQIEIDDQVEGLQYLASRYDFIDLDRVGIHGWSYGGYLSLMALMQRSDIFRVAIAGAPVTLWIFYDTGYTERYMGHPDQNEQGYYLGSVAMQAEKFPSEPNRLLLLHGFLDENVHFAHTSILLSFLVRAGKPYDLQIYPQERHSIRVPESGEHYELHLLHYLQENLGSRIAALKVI
Procedure: as §2

DPP9 [5] = target: T1, DPP9; assay: biochemical; parameters: purchased Proteros Biostructures GmbH, Germany
Procedure: as §2

DPP8 [6] = target: T3, DPP8; assay: Time-dependent DPP8 inhibition kinetics (kobs, KI, kinact, kapp); conditions: for kobs: n=3
Procedure: as §1

`CCCCCCP(=O)(OCC)N1CCC[C@H](N)C1=O` (some centres unmarked) [Compound 5] was tested, and the kobs (DPP9 [1]; c 25000 nM) was 0.000207 s⁻¹, the kobs (DPP9 [1]; c 50000 nM) was 0.000227 s⁻¹ and the kobs (DPP9 [1]; c 100000 nM) was 0.000318 s⁻¹. The kobs (DPP4 [2]; c 25000 nM) was 0.001878 s⁻¹, the kobs (DPP4 [2]; c 50000 nM) was 0.001819 s⁻¹ and the kobs (DPP4 [2]; c 100000 nM) was 0.001824 s⁻¹. For the same compound, the IC50 (DPP4 [3]; IC50 DPP4, GP-AMC 250 µM, 10 nM enzyme, 45 min pre-incubation at 30 °C) was 46.7 µM, the remaining activity at 1.5625 µM (DPP4 [3]; read-out: DPP4 activity [%], c 1562.5 nM, replicates) was 101% and the remaining activity at 3.125 µM (DPP4 [3]; read-out: DPP4 activity [%], c 3125 nM, replicates) was 103%. For the same compound, the remaining activity at 6.25 µM (DPP4 [3]; read-out: DPP4 activity [%], c 6250 nM, replicates) was 105%, the remaining activity at 25 µM (DPP4 [3]; read-out: DPP4 activity [%], c 25000 nM, replicates) was 79.6% and the remaining activity at 50 µM (DPP4 [3]; read-out: DPP4 activity [%], c 50000 nM, replicates) was 44.3%. It also gave a remaining activity at 100 µM (DPP4 [3]; read-out: DPP4 activity [%], c 100000 nM, replicates) of 23.3%, an IC50 (DPP8 [4]) of 13.7 µM and a remaining activity at 1.5625 µM (DPP8 [4]; read-out: DPP8 activity [%], c 1562.5 nM, replicates) of 94.2%. For the same compound, the remaining activity at 3.125 µM (DPP8 [4]; read-out: DPP8 activity [%], c 3125 nM, replicates) was 84.3%, the remaining activity at 6.25 µM (DPP8 [4]; read-out: DPP8 activity [%], c 6250 nM, replicates) was 64.1% and the remaining activity at 15.625 µM (DPP8 [4]; read-out: DPP8 activity [%], c 15625 nM, replicates) was 42.1%. It also gave a remaining activity at 25 µM (DPP8 [4]; read-out: DPP8 activity [%], c 25000 nM, replicates) of 28.4%, a remaining activity at 31.25 µM (DPP8 [4]; read-out: DPP8 activity [%], c 31250 nM, replicates) of 19.4% and a remaining activity at 50 µM (DPP8 [4]; read-out: DPP8 activity [%], c 50000 nM, replicates) of 13.9%. For the same compound, the remaining activity at 62.5 µM (DPP8 [4]; read-out: DPP8 activity [%], c 62500 nM, replicates) was 4.38%, the remaining activity at 100 µM (DPP8 [4]; read-out: DPP8 activity [%], c 100000 nM, replicates) was 5.19% and the IC50 (DPP9 [5]) was 42.7 µM. It also gave a remaining activity at 1.5625 µM (DPP9 [5]; read-out: DPP9 activity [%], c 1562.5 nM, replicates) of 97%, a remaining activity at 3.125 µM (DPP9 [5]; read-out: DPP9 activity [%], c 3125 nM, replicates) of 96.9% and a remaining activity at 6.25 µM (DPP9 [5]; read-out: DPP9 activity [%], c 6250 nM, replicates) of 89.1%. For the same compound, the remaining activity at 15.625 µM (DPP9 [5]; read-out: DPP9 activity [%], c 15625 nM, replicates) was 77.4%, the remaining activity at 25 µM (DPP9 [5]; read-out: DPP9 activity [%], c 25000 nM, replicates) was 65.7% and the remaining activity at 31.25 µM (DPP9 [5]; read-out: DPP9 activity [%], c 31250 nM, replicates) was 60.7%. The remaining activity at 50 µM (DPP9 [5]; read-out: DPP9 activity [%], c 50000 nM, replicates) was 45.5%, the remaining activity at 62.5 µM (DPP9 [5]; read-out: DPP9 activity [%], c 62500 nM, replicates) was 38.8% and the remaining activity at 100 µM (DPP9 [5]; read-out: DPP9 activity [%], c 100000 nM, replicates) was 22.1%. It also gave a remaining activity at 250 µM (DPP9 [5]; read-out: DPP9 activity [%], c 250000 nM, replicates) of 5.77%, a remaining activity at 500 µM (DPP9 [5]; read-out: DPP9 activity [%], c 500000 nM, replicates) of 1.09% and a kapp (DPP8 [6]; DPP8) of 36.00 M⁻¹ s⁻¹. For the same compound, the kinact best fit (DPP8 [6]; DPP8) was 0.0004148 s⁻¹, the kobs (DPP8 [6]; DPP8, c 1562.5 nM) was 9.14e-05 s⁻¹ and the kobs (DPP8 [6]; DPP8, c 6250 nM) was 0.000151 s⁻¹. The kobs (DPP8 [6]; DPP8, c 25000 nM) was 0.000235 s⁻¹, the kobs (DPP8 [6]; DPP8, c 50000 nM) was 0.00037 s⁻¹ and the “kapp DPP8” value (DPP8 [6]; ratio kinact/KI) was 36 M⁻¹ s⁻¹. For the same compound, the KI (inactivation) (DPP8 [6]; read-out: KI DPP8, irreversible inhibition, fit of kobs vs inhibitor concentration) was 11.5 µM, the KI (inactivation) (DPP8 [6]; read-out: KI best fit, DPP8) was 11.5 µM and the KI (inactivation) (DPP8 [6]; read-out: KI best fit, DPP8, fit of kobs vs inhibitor concentration) was 11.5 µM. The kinact (DPP8 [6]; read-out: kinact DPP8, irreversible inhibition, fit of kobs vs inhibitor concentration) was 0.00042 ± 7e-05 s⁻¹ and the kinact (DPP8 [6]; read-out: kinact best fit, DPP8) was 0.000415 s⁻¹.
